Literature values in article PMC5156321 (Natural product communications, 2014).
Where two headings read alike, the source gives them in different places. One block for each compound: values may come before it.

Legend:
caspase-1 = conditions: for Caspase-1 IC100: tested at 100 μg/mL and 10 μg/mL; for IC50: read-out: Caspase-1 IC50; for caspase-1 % inhibition: test concentration 100 μg,mL
leukemia CCRFCEM = conditions: NCI-DTP 60
leukemia HL-60 = conditions: NCI-DTP 60
[1] = target: matrix metalloproteinase-3 (MMP-3); conditions: for IC50: read-out: MMP-3 IC50
[2] = tested on: non-small cell lung cancer NCI-H460; conditions: NCI-DTP 60
all leukemia cell lines = conditions: NCI-DTP 60
[3] = tested on: IL-1β production in induced THP-1 cells; conditions: for IC50: read-out: IL-1β production (IC50), LPS and multi-walled carbon nanotubes-induced THP-1 cells; for inhibition of cytokine production in induced inflammasome assay: at the nm level, Figure 11
HeLaS3 [4] = conditions: read-out: IC50 (μM) Alamar Blue Viability HeLaS3; tested at MSKCC
UMUC3 [5] = conditions: read-out: IC50 (μM) Alamar Blue Viability UMUC3; tested at MSKCC
HeLaS3 [6] = conditions: read-out: IC50 (μM) Nuclei Count Proliferation HeLaS3; tested at MSKCC
UMUC3 [7] = conditions: read-out: IC50 (μM) Nuclei Count Proliferation UMUC3; tested at MSKCC
leukemia RPMI-8226 = conditions: NCI-DTP 60
[8] = tested on: non-small cell lung cancer NCI-H522; conditions: NCI-DTP 60
Y79 = conditions: read-out: IC50 (μM) Nuclei Count Proliferation Y79; tested at MSKCC
H3255 = conditions: read-out: IC50 (μM) Nuclei Count Proliferation H3255; tested at MSKCC
leukemia SR = conditions: NCI-DTP 60
[9] = test concentrations 100 μg/mL and 10 μg/mL

Compound: C/C=C/C1=CC2=CC(=O)[C@@H](C)[C@H](O)[C@H]2CO1 [Berkazaphilone A (25), Berkazaphilone A]
- Caspase-1 IC100 (caspase-1): Caspase-1: 100 μg/mL

Compound: Berkebisabolane C [Berkebisabolane C (6)]
- IC50 [1]: 0.34 µM
- IC50 (caspase-1): 23 µM

Compound: Berkebisabolane A [Berkebisabolane A (4)]
- IC50 [1]: 0.28 µM
- IC50 (caspase-1): 23 µM

Compound: C[C@@H]1O[C@@H]2OC(=O)[C@]3(C)C[C@@H]4[C@](C)(C(=O)C=C5C(=CC(=O)OC5(C)C)[C@@]45CO5)[C@H](C1=O)[C@H]23 [berkeleyacetal C (19), berkeleyacetal C]
- MMP-3 inhibition, concentration range [1]: micromolar range
- caspase-1 inhibition, concentration range (caspase-1): micromolar range
- growth inhibition of NCI H460 [2]: inhibited the growth
- growth inhibition of all leukemia cell lines (all leukemia cell lines): inhibited the growth

Compound: C=C(C)C1=CC[C@@]2(C)[C@@H](C[C@]3(C)C(=C)[C@@]2(C(=O)OC)C(=O)[C@@](C)(O)C3=O)[C@]1(C)CCC(=O)O [Berkeleyone C (14), Berkeleyone C]
- caspase-1 % inhibition (caspase-1): 0%
- IC50 [3]: 37.8 µM

Compound: C/C=C/C1=CC2=CC(=O)[C@](C)(OC(=O)c3c(C)cc(O)cc3O)[C@H](O)[C@H]2CO1 [Berkazaphilone B (26), berkazaphilone B]
- Caspase-1 IC100 (caspase-1): Caspase-1: 10 μg/mL
- leukemia RPMI-8226 log10 GI50 (leukemia RPMI-8226): leukemia RPMI-8226: log10 GI50 (−5.67)
- concentration completely inhibitory to IL-1β production in THP-1 cells [3]: 2.0 µg/mL

Compound: CC(C)C[C@H]1C[C@H]([C@@H](O)CC(=O)Cc2ccccc2)C(=O)N1 [Berkeleyamide A (21), Berkeleyamide A]
- NCI-H522 log10 GI100 [8]: log10 GI100: 10 μM;

Compound: C/C=C/C1=CC2=CC(=O)[C@](C)(O)[C@H](OC(=O)c3c(C)cc(O)cc3O)[C@H]2CO1 [Berkazaphilone C (27), berkazaphilone C]
- Caspase-1 IC100 (caspase-1): Caspase-1: 10 μg/mL
- leukemia SR log10 GI50 (leukemia SR): leukemia SR: log10 GI50 (−6.42)
- concentration completely inhibitory to IL-1β production in THP-1 cells [3]: 20 µg/mL
- inhibition of cytokine production in induced inflammasome assay [3]: completely inhibited

Compound: C=C1[C@@]2(C)C[C@H]3[C@]4(C)CCC(=O)OC(C)(C)[C@@H]4CC[C@]3(C)[C@]1(C(=O)OC)C(=O)[C@@](C)(O)C2=O [Preaustinoid A1(11), Preaustinoid A1]
- caspase-1 % inhibition (caspase-1): 77%
- IC50 [3]: 34.3 µM

Compound: C=C1[C@@]2(C)C[C@H]3[C@@]4(C)C(=CC[C@]3(C)[C@]1(C(=O)OC)C(=O)[C@@](C)(O)C2=O)C(C)(C)C(=O)C[C@H]4O [Berkeleytrione (9), berkeleytrione]
- IC50 [1]: 180 µM

Compound: C=C1[C@@]2(C)C[C@H]3[C@]4(C)CC[C@@H](O)C(C)(C)[C@H]4CC[C@]3(C)[C@]1(C(=O)OC)C(=O)[C@@](C)(O)C2=O [Berkeleyone A (12), Berkeleyone A]
- caspase-1 % inhibition (caspase-1): 68%
- IC50 [3]: 2.7 µM

Compound: COC(=O)[C@]12C(=O)[C@H](C)O[C@@H]3OC(=O)[C@](C)(C[C@H]4[C@]5(CO5)C5=CC(=O)OC(C)(C)C5=CC[C@@]41C)[C@@H]32 [B (18), berkeleyacetal B]
- MMP-3 inhibition, concentration range [1]: mM range
- caspase-1 inhibition, concentration range (caspase-1): mM range

Compound: Berkedrimane A [Berkedrimane A (31)]
- caspase-1 IC50 (caspase-1): 60 µg/mL
- inhibition of cytokine production in induced inflammasome assay [3]: completely inhibited

Compound: CC(=O)N[C@H](C(=O)O[C@H]1CCC(C)(C)[C@@H]2CC=C3C(=O)OC[C@]3(O)[C@@]12C)C(C)C [B (32), Berkedrimane B]
- caspase-1 IC50 (caspase-1): 50 µg/mL
- inhibition of cytokine production in induced inflammasome assay [3]: completely inhibited

Compound: CCCCCCCCCC(=O)[C@@]12O[C@@]13C1=COC(C[C@H](C)O)=CC1=CC(=O)[C@]3(C)OC2=O [compound 45, berkchaetoazaphilone B]
- caspase-1 inhibition (caspase-1): strongest caspase-1 inhibitor

Compound: CCCCC[C@@H]1Cc2cc(O)c(C(=O)O)c3c2[C@H](C[C@]2(OC[C@H](CC(=O)C(C)(CC)C(=O)OC)[C@H]2C)O3)O1 (stereo partly drawn) [Berkelic acid (1), berkelic acid]
- IC50 [1]: 1.87 µM
- IC50 (caspase-1): 98 µM
- activity in the NCI-DTP60 against OVCAR-3 (OVCAR-3): active
- GI50 (OVCAR-3; read-out: GI50 NCI-DTP: OVCAR-3, NCI-DTP 60): 0.091 µM

Compound: C/C=C(\C)C(=O)O[C@H]1C=CC(=O)O[C@H]1/C=C/[C@H](O)[C@H](C)O [compound 34, Phomopsolide B]
- IC50 (UMUC3 [7]): 6.1 µM

Compound: C=C1[C@@]2(C)C[C@@H]3[C@](C)(CC=C4C(C)(C)OC(=O)CC[C@]43C)[C@]1(C(=O)OC)C(=O)[C@@](C)(O)C2=O [Berkeleyone B (13), Berkeleyone B]
- caspase-1 % inhibition (caspase-1): 100%
- IC50 [3]: 3.7 µM

Compound: C=C1[C@@]2(C)C[C@H]3C(C)=C4CC(=O)OC(C)(C)C4=CC[C@]3(C)[C@]1(C(=O)OC)C(=O)[C@@](C)(O)C2=O [Berkeleydione (8), berkeleydione]
- IC50 [1]: 22 µM
- caspase-1 % inhibition (caspase-1): 89%
- NCI-H460 log10 GI50 [2]: NCI-H460: log10 GI50 −6.40.
- activity towards NCI-H460 [2]: selective activity
- IC50 [3]: 4.4 µM

Compound: Berkebisabolane B [Berkebisabolane B (5)]
- IC50 [1]: 0.315 µM
- IC50 (caspase-1): 23 µM

Continued, in another order:

- Caspase-1 IC100 (caspase-1): Caspase-1: 100 μg/mL
Compound: COc1cc(OC)c2c(c1)C(=O)O[C@H]2c1coc(C)cc1=O [Penisimplicissimum (30), penisimplicissin]
- leukemia CCRFCEM log10 GI50 (leukemia CCRFCEM): leukemia CCRFCEM: log10 GI50 (−6.70)
- leukemia HL-60 log10 GI50 (leukemia HL-60): leukemia HL-60: log10 GI50 (−5.83)

- IC50 [1]: 100 µM
- IC50 (HeLaS3 [4]): 6.3 µM
- IC50 (HeLaS3 [6]): 5 µM
Compound: C/C=C(\C)C(=O)O[C@H]1C=CC(=O)O[C@H]1/C=C\C(=O)C(C)O (stereo partly drawn) [compound 33, Phomopsolide A]
- IC50 (UMUC3 [5]): 6.5 µM
- IC50 (UMUC3 [7]): 4.8 µM

- MMP-3 inhibition, concentration range [1]: mM range
- caspase-1 inhibition, concentration range (caspase-1): mM range
Compound: COC(=O)[C@]12C(=O)[C@H](C)O[C@@H]3OC(=O)[C@](C)(C[C@H]4C(C)=C5CC(=O)OC(C)(C)C5=CC[C@@]41C)[C@@H]32 [berkeleyacetals A (17), berkeleyacetal A]

- caspase-1 inhibition (caspase-1): inhibited caspase-1 activity
- caspase-1 % inhibition (caspase-1): 97%
- IC50 [3]: 15.5 µM
Compound: C=C1[C@@]2(C)C[C@H]3[C@]4(C)CCC(=O)C(C)(C)[C@H]4CC[C@]3(C)[C@]1(C(=O)OC)C(=O)[C@@](C)(O)C2=O [Preaustinoid A (10), preaustinoid A]

- IC50 (HeLaS3 [4]): 3.6 µM
- IC50 (HeLaS3 [6]): 2.7 µM
- IC50 (H3255): 2.6 µM
Compound: C/C=C(\C)C(=O)O[C@H]1C=CC(=O)O[C@H]1/C=C/C(=O)[C@H](C)O [compound 35, Phomopsolide C]
- IC50 (UMUC3 [5]): 2.2 µM
- IC50 (Y79): 1.4 µM
- IC50 (UMUC3 [7]): 1.4 µM

- IC50 [1]: > 100 µM
Compound: phompyrone [compound 38]

- caspase-1 inhibition (caspase-1; [9]): not inhibitory
Compound: C/C=C/c1cc(=O)c([C@@H]2OC(=O)c3cc(OC)cc(OC)c32)co1 [Vermistatin (28), vermistatin]

- caspase-1 inhibition (caspase-1; [9]): not inhibitory
Compound: CCCc1cc(=O)c([C@@H]2OC(=O)c3cc(OC)cc(OC)c32)co1 [dihydrovermistatin (29), dihydrovermistatin]

- IC50 (HeLaS3 [6]): 7.3 µM
Compound: C/C=C(\C)C(=O)O[C@H]1C=CC(=O)O[C@H]1CCC(=O)[C@H](C)O [compound 36, Phomopsolide E]
- IC50 (UMUC3 [7]): 6.6 µM
